Source: patent publication US20060166900A1, “Salt of morphine-6-glucuronide” (CeNeS Limited, priority 2002, published 2006)

What was measured:
Format in all cases: physicochemical
[1] = Stability indicating HPLC assay and related substances on storage (Example 3)
[2] = Water content by Karl Fisher analysis on storage (Example 3)
How it was run: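 900 mg aliquots were held in argon-flushed brown opaque HDPE bottles at 25 °C/60% RH, 40 °C/75% RH and 60 °C. At each time point, water content (% w/w) was determined in duplicate on about 100 mg of equilibrated material by Karl Fischer titration.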

[3] = Visual appearance on storage (Example 3)
How it was run: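 Aliquots (900 mg) kept at 2-8 °C beforehand were stored in argon-flushed brown opaque HDPE bottles at 25 °C/60% RH, 40 °C/75% RH and 60 °C. Visual appearance was assessed at set time points.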

[4] = Colour of solution by visible spectrophotometry on storage (Example 3); conditions: 5% w/v solution in water
How it was run: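 5% w/v aqueous solution, absorbance at 420 nm in a 1 cm silica cell. Samples were stored in argon-flushed brown opaque HDPE bottles at 25° C./60% RH, 40° C./75% RH and 60° C.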

[5] = Stability of M6G salts at room temperature over 6 years, HPLC; conditions: for Assay M6G corr.: content calculated as M6G derivative; for degradation / discolouration: storage at room temperature for six years, hydrobromide
[6] = almost 6 years at room temperature
[7] = listed as hydrobromide salt of M6G

For `Br.CN1CC[C@]23c4c5ccc(O)c4O[C@H]2[C@@H](O[C@@H]2O[C@H](C(=O)O)[C@@H](O)[C@H](O)[C@H]2O)C=C[C@H]3[C@H]1C5` [Morphine-6-glucuronide hydrobromide], the “Known Related Substances HN33177” value ([1]; 1 month, 25° C./60% RH) was 0.74%, the “Known Related Substances HN75083” value ([1]; 1 month, 25° C./60% RH) was 0.03% and the “M6G Assay, Anhydrous basis” value ([1]; 1 month, 25° C./60% RH) was 85.18 % w/w. The “M6G Assay, As is basis” value ([1]; 1 month, 25° C./60% RH) was 83.02 % w/w, the “M6G Assay, Corrected for the salt form” value ([1]; 1 month, 25° C./60% RH) was 100.11 % w/w and the “Total Known” value ([1]; 1 month, 25° C./60% RH) was 0.77%. For the same molecule, the “Total Related Substances” value ([1]; 1 month, 25° C./60% RH) was 0.84%, the “Total Unknown” value ([1]; 1 month, 25° C./60% RH) was 0.07% and the “Known Related Substances HN33177” value ([1]; 1 month, 40° C./75% RH) was 0.74%. For the same molecule, the “Known Related Substances HN75076” value ([1]; 1 month, 40° C./75% RH) was 0.01%, the “Known Related Substances HN75083” value ([1]; 1 month, 40° C./75% RH) was 0.05% and the “M6G Assay, Anhydrous basis” value ([1]; 1 month, 40° C./75% RH) was 85.09 % w/w. The “M6G Assay, As is basis” value ([1]; 1 month, 40° C./75% RH) was 82.40 % w/w, the “M6G Assay, Corrected for the salt form” value ([1]; 1 month, 40° C./75% RH) was 100.01 % w/w and the “Total Known” value ([1]; 1 month, 40° C./75% RH) was 0.80%. The “Total Related Substances” value ([1]; 1 month, 40° C./75% RH) was 0.80%, the “Total Unknown” value ([1]; 1 month, 40° C./75% RH) was 0.00% and the “Known Related Substances HN33177” value ([1]; 1 month, 60° C.) was 0.66%. The “Known Related Substances HN67003” value ([1]; 1 month, 60° C.) was 0.10%, the “Known Related Substances HN75076” value ([1]; 1 month, 60° C.) was 0.04% and the “Known Related Substances HN75083” value ([1]; 1 month, 60° C.) was 0.02%. For the same molecule, the “M6G Assay, Anhydrous basis” value ([1]; 1 month, 60° C.) was 84.44 % w/w, the “M6G Assay, As is basis” value ([1]; 1 month, 60° C.) was 82.82 % w/w and the “M6G Assay, Corrected for the salt form” value ([1]; 1 month, 60° C.) was 99.25 % w/w. The “Total Known” value ([1]; 1 month, 60° C.) was 0.82%, the “Total Related Substances” value ([1]; 1 month, 60° C.) was 1.20% and the “Total Unknown” value ([1]; 1 month, 60° C.) was 0.38%. For the same molecule, the “stability based on % w/w assay” value ([1]; 3 month assay data) was “most stable”, the “Known Related Substances HN33177” value ([1]; 3 months, 25° C./60% RH) was 0.77% and the “Known Related Substances HN75083” value ([1]; 3 months, 25° C./60% RH) was 0.04%. The “M6G Assay, Anhydrous basis” value ([1]; 3 months, 25° C./60% RH) was 86.19 % w/w, the “M6G Assay, As is basis” value ([1]; 3 months, 25° C./60% RH) was 84.30 % w/w and the “M6G Assay, Corrected for the salt form” value ([1]; 3 months, 25° C./60% RH) was 101.30 % w/w. For the same molecule, the “Total Known” value ([1]; 3 months, 25° C./60% RH) was 0.81%, the “Total Related Substances” value ([1]; 3 months, 25° C./60% RH) was 0.93% and the “Total Unknown” value ([1]; 3 months, 25° C./60% RH) was 0.12%. For the same molecule, the “Known Related Substances HN33177” value ([1]; 3 months, 40° C./75% RH) was 0.70%, the “Known Related Substances HN75076” value ([1]; 3 months, 40° C./75% RH) was 0.02% and the “M6G Assay, Anhydrous basis” value ([1]; 3 months, 40° C./75% RH) was 85.85 % w/w. For the same molecule, the “M6G Assay, As is basis” value ([1]; 3 months, 40° C./75% RH) was 83.14 % w/w, the “M6G Assay, Corrected for the salt form” value ([1]; 3 months, 40° C./75% RH) was 100.90 % w/w and the “Total Known” value ([1]; 3 months, 40° C./75% RH) was 0.72%. The “Total Related Substances” value ([1]; 3 months, 40° C./75% RH) was 0.72%, the “Total Unknown” value ([1]; 3 months, 40° C./75% RH) was 0.00% and the “increase in the amount of degradation products as measured by HPLC” value ([1]; 3 months, 40° C./75% RH) was “basically no increase”. The stability assessment ([1]; 25° C./60% RH and 40° C./75% RH for 3 months and 60° C. for 1 month) was “stable”, the “Known Related Substances HN33177” value ([1]; Initial) was 0.72% and the “Known Related Substances HN67003” value ([1]; Initial) was 0.04%. For the same molecule, the “Known Related Substances HN75083” value ([1]; Initial) was 0.10%, the “M6G Assay, Anhydrous basis” value ([1]; Initial) was 83.63 % w/w and the “M6G Assay, As is basis” value ([1]; Initial) was 82.26 % w/w. The “M6G Assay, Corrected for the salt form” value ([1]; Initial) was 98.29 % w/w, the “Total Known” value ([1]; Initial) was 0.86% and the “Total Related Substances” value ([1]; Initial) was 0.94%. For the same molecule, the “Total Unknown” value ([1]; Initial) was 0.08%, the overall stability comparison ([1]; overall review of Example 3 data) was “more stable than all other salts and the base” and the Moisture ([2]; 1 month, 25° C./60% RH) was 2.56 % w/w. It also gave a Moisture ([2]; 1 month, 40° C./75% RH) of 3.19 % w/w, a Moisture ([2]; 1 month, 60° C.) of 1.95 % w/w and a Moisture ([2]; 3 months, 25° C./60% RH) of 3.28 % w/w. The Moisture ([2]; 3 months, 40° C./75% RH) was 4.24 % w/w, the Moisture ([2]; Initial) was 2.38 % w/w and the Appearance ([3]; 1 month, 25° C./60% RH) was “White crystalline powder”. The Appearance ([3]; 1 month, 40° C./75% RH) was “White crystalline powder”, the Appearance ([3]; 1 month, 60° C.) was “White crystalline powder” and the Appearance ([3]; 3 months, 25° C./60% RH, hydrobromide) was “White crystalline powder”. The Appearance ([3]; 3 months, 25° C./60% RH, listed as hydrobromide, hydrobromide) was “white crystalline solids”, the Appearance ([3]; 3 months, 40° C./75% RH) was “White crystalline powder” and the Appearance ([3]; Initial) was “White crystalline powder”. The Colour ([4]; 1 month, 25° C./60% RH) was 0.073 Abs@420 nm, the Colour ([4]; 1 month, 40° C./75% RH) was 0.064 Abs@420 nm and the Colour ([4]; 1 month, 60° C.) was 0.261 Abs@420 nm. The Colour ([4]; 3 months, 25° C./60% RH) was 0.046 Abs@420 nm, the Colour ([4]; 3 months, 40° C./75% RH) was 0.066 Abs@420 nm and the Colour ([4]; Initial) was 0.029 Abs@420 nm. The HN-33177 ([5]; 0 years) was 0.3%, the HN-75083 ([5]; 0 years) was less than 0.1% and the “Unknown related substances (sum area %)” value ([5]; 0 years) was less than 0.1 area %. The “Assay M6G corr.” value ([5]; 0 years) was 90.7%, the HN-33177 ([5]; 6 years at ambient temperature) was 0.4% and the HN-67002 ([5]; 6 years at ambient temperature) was 0.5%. The HN-67003 ([5]; 6 years at ambient temperature) was 0.2%, the “Unknown related substances (sum area %)” value ([5]; 6 years at ambient temperature) was 1.0 area % and the “Assay M6G corr.” value ([5]; 6 years at ambient temperature) was 96.3%. The largest unidentified peak [5, 6] was no more than 0.4 area %, the “peaks present in the chromatogram that cannot be identified by retention time” value [5, 6] was 4 and the degradation ([5]; listed as M6G.HBr) was “very limited amount of degradation”. For the same molecule, the discolouration ([5]; listed as M6G.HBr) was “no discolouration”, the degradation [5, 7] was “very limited degradation” and the discolouration [5, 7] was “not discoloured”.
